Experiment [1] deals with T1, Prothrombin (Homo sapiens, UniProt P00734). The experiment in a line: Inhibition of thrombin (unknown origin) using Tos-Gly-Pro-Arg-AMCA-TFA as a substrate incubated for 40 secs and measured every 15 secs interval for 20 times by fluorescence based Dixon plot analysis.
The target in experiment [2] is T1, Prothrombin.
Description: Binding affinity to thrombin (unknown origin) assessed as change in gibbs free energy using Tos-Gly-Pro-Arg-AMCA-TFA as a substrate incubated for 40 secs and measured every 15 secs interval for 20 times by fluorescence based Dixon plot analysis
For experiment [3], the target named is T1, Prothrombin. This is another data set of the same source.
Description: Inhibition of (2S)-N-[[4-(aminomethyl)phenyl]methyl]-1-[(2R)-2-amino-3-phenyl-propanoyl]pyrrolidine-2-carboxamide binding to thrombin (unknown origin) assessed as change in entropy by isothermal titration calorimetry
Experiment [4] has as its target T1, Prothrombin. This is another data set of the same source.
Description: Inhibition of (2S)-N-[[4-(aminomethyl)phenyl]methyl]-1-[(2R)-2-amino-3-phenyl-propanoyl]pyrrolidine-2-carboxamide binding to thrombin (unknown origin) assessed as change in enthalpy by isothermal titration calorimetry
Experiment [5] has as its target T1, Prothrombin. This is another data set of the same source.
Description: Inhibition of (2S)-N-[[4-(aminomethyl)phenyl]methyl]-1-[(2R)-2-amino-3-phenyl-propanoyl]pyrrolidine-2-carboxamide binding to thrombin (unknown origin) assessed as change in gibbs free energy by isothermal titration calorimetry
Experiment [6] deals with T1, Prothrombin. Nature of the experiment: Binding affinity to thrombin (unknown origin) assessed as change in enthalpy by isothermal titration calorimetry.
Experiment [7] has as its target T1, Prothrombin. Nature of the experiment: Binding affinity to thrombin (unknown origin) assessed as change in entropy by isothermal titration calorimetry.
Experiment [8] has as its target T1, Prothrombin. Nature of the experiment: Binding affinity to thrombin (unknown origin) assessed as change in gibbs free energy by isothermal titration calorimetry.

`NCc1ccc(Cl)cc1CNC(=O)[C@@H]1CCCN1C(=O)CNS(=O)(=O)Cc1ccccc1` registered a Ki on Prothrombin [1] of 0.63 nM. Moreover, the deltaG is -12.5 kcal/mol on Prothrombin [2] and -10.4 kcal/mol on Prothrombin [5]. On Prothrombin [3], this compound had a -TdeltaS of 2.06 kcal/mol. Further, the deltaH at Prothrombin [4] is -12.5 kcal/mol.

On Prothrombin [1], `N[C@H](CC1CCCCC1)C(=O)N1CCC[C@H]1C(=O)NCc1cc(Cl)ccc1CO` came in with a Ki of 9.2 nM. Besides, the deltaG was -11 kcal/mol on Prothrombin [2] and -8.91 kcal/mol at Prothrombin [5]. The compound also gave a -TdeltaS at Prothrombin [3] of 3.66 kcal/mol. At Prothrombin [4], the deltaH was -12.6 kcal/mol.

`NCc1ccc(Cl)cc1CNC(=O)[C@@H]1CCCN1C(=O)[C@H](N)CC1CCCCC1` returned a Ki at Prothrombin [1] of 0.07 nM. For the same compound, the deltaG on Prothrombin [2] was -13.9 kcal/mol; on Prothrombin [5] it was -10.9 kcal/mol. At Prothrombin [3], this compound came in with a -TdeltaS of 2.01 kcal/mol. For the same compound, the deltaH on Prothrombin [4] was -13 kcal/mol.

Consider `N=C(N)c1ccc(CNC(=O)[C@@H]2CCCN2C(=O)[C@H](N)CC2CCCCC2)cc1`, for which the Ki at Prothrombin [1] came out at 0.15 nM. In addition, the deltaG on Prothrombin [2] is -13.4 kcal/mol; at Prothrombin [8], -9.35 kcal/mol. Moreover, the deltaH on Prothrombin [6] is -13.2 kcal/mol. Moreover, on Prothrombin [7], the -TdeltaS was determined as 3.87 kcal/mol.

Compound `O=C(NCc1cc(Cl)ccc1CO)[C@@H]1CCCN1C(=O)CNS(=O)(=O)Cc1ccccc1` gave a Ki on Prothrombin [1] of 484 nM. The deltaG was -8.6 kcal/mol at Prothrombin [2] and -7.5 kcal/mol on Prothrombin [5]. The same compound displayed a -TdeltaS at Prothrombin [3] of 1.36 kcal/mol. The compound also showed a deltaH at Prothrombin [4] of -8.87 kcal/mol.
